Laboratory results as given in BindingDB's records for doi:10.1016/j.bmcl.2021.128215 (Shenyang Pharmaceutical University, 2021).
Values belong to the compound of their own block, whether it stands above or below them.

Target: Apoptosis regulator Bcl-2 (Homo sapiens) (UniProt P10415)
Test: Binding affinity to Bcl-2 (unknown origin) by fluorescence polarization competition assay

Apoptosis regulator Bcl-2 (Homo sapiens), sequence (P10415 whole entry, looked up): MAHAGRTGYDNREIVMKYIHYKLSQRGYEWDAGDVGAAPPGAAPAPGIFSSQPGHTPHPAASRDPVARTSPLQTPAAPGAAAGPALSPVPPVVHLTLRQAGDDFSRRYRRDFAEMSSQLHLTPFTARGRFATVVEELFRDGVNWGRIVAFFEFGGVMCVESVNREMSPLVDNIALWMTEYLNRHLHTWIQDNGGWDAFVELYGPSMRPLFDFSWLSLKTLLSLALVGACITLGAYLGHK

SMILES: O=C(O)c1ccccc1-c1cccc2c1ccn2CCCOc1cccc2ccccc12
- Ki: 4.53 µM

SMILES: Cc1cccc(-c2cn(CCCOc3cccc4ccccc34)c3cccc(-c4ccccc4C(=O)O)c23)c1
- Ki: 0.56 µM

SMILES: O=C(O)c1ccccc1-c1cccc2c1c(-c1cccc(C(F)(F)F)c1)cn2CCCOc1cccc2ccccc12
- Ki: 2.55 µM

SMILES: O=C(O)c1ccccc1-c1cccc2c1c(-c1cccc(Cl)c1)cn2CCOc1cccc2ccccc12
- Ki: 3.21 µM

SMILES: Cc1ccccc1-c1cn(CCOc2cccc3ccccc23)c2cccc(-c3ccccc3C(=O)O)c12
- Ki: 0.25 µM

SMILES: CC(C)c1ccccc1-c1cn(CCOc2cccc3ccccc23)c2cccc(-c3ccccc3C(=O)O)c12
- Ki: 1.74 µM

SMILES: Cc1ccccc1-c1cn(Cc2cccc3ccccc23)c2cccc(-c3ccccc3C(=O)O)c12
- Ki: 0.66 µM

SMILES: COc1ccccc1-c1cn(Cc2cccc3ccccc23)c2cccc(-c3ccccc3C(=O)O)c12
- Ki: 1.28 µM

SMILES: O=C(O)c1ccccc1-c1cccc2c1c(-c1cccc(Cl)c1)cn2Cc1cccc2ccccc12
- Ki: 0.1 µM

SMILES: O=C(O)c1ccccc1-c1cccc2c1c(-c1ccccc1)cn2Cc1cccc2ccccc12
- Ki: 0.82 µM

Further compounds by falling Ki, results first:

- Ki: 1.8 µM
SMILES: Cc1cccc(-c2cn(Cc3cccc4ccccc34)c3cccc(-c4ccccc4C(=O)O)c23)c1

- Ki: 1.3 µM
SMILES: Cc1cccc(-c2cn(CCOc3cccc4ccccc34)c3cccc(-c4ccccc4C(=O)O)c23)c1C

- Ki: 1.08 µM
SMILES: O=C(O)c1ccccc1-c1cccc2c1c(-c1cccc(C(F)(F)F)c1)cn2Cc1cccc2ccccc12

- Ki: 0.87 µM
SMILES: Cc1ccc(-c2cn(CCOc3cccc4ccccc34)c3cccc(-c4ccccc4C(=O)O)c23)cc1

- Ki: 0.82 µM
SMILES: COc1ccccc1-c1cn(CCOc2cccc3ccccc23)c2cccc(-c3ccccc3C(=O)O)c12

- Ki: 0.8 µM
SMILES: Cc1ccc(-c2cn(Cc3cccc4ccccc34)c3cccc(-c4ccccc4C(=O)O)c23)cc1

- Ki: 0.53 µM
SMILES: COc1cccc(-c2cn(Cc3cccc4ccccc34)c3cccc(-c4ccccc4C(=O)O)c23)c1

- Ki: 0.49 µM
SMILES: O=C(O)c1ccc(Cl)cc1-c1cccc2c1ccn2CCCOc1cccc2ccccc12

- Ki: 0.36 µM
SMILES: Cc1cccc(-c2cn(CCOc3cccc4ccccc34)c3cccc(-c4ccccc4C(=O)O)c23)c1

- Ki: 0.3 µM
SMILES: CCc1ccccc1-c1cn(CCOc2cccc3ccccc23)c2cccc(-c3ccccc3C(=O)O)c12

- Ki: 0.25 µM
SMILES: O=C(O)c1ccccc1-c1cccc2c1c(-c1cccc(C(F)(F)F)c1)cn2CCOc1cccc2ccccc12
